Test results as given in ChEMBL document CHEMBL1136578, “Synthesis of non-natural C2-homo-ceramide and its apoptotic activity against HL-60 cells” (2003).

These compounds were tested on HL-60 (assay: Apoptotic activity against HL-60 (Human leukemia) cell after 6 hr of stimulation measured by MTT assay).
Assay type: functional

| Compound | Apoptosis |
| --- | --- |
| CCCCCCCCCCCCCCC[C@@H](O)[C@H](CCO)NC(C)=O | 21% |
| CCCCCCCCCCCCC/C=C/[C@@H](O)[C@H](CCO)NC(C)=O | 48% |
| CCCCCCCCCCCCCCC[C@@H](O)[C@H](CCCO)NC(C)=O | 20% |
| CCCCCCCCCCCCC/C=C/[C@@H](O)[C@H](CCCO)NC(C)=O | 52% |
| CCCCCCCCCCCCC/C=C/[C@@H](O)[C@H](CO)NC(C)=O (stereo in doubt; form 1) | 62% |
